For orientation: IC50 means the concentration at which inhibition is half-maximal.

The structures appear in SMILES notation. Structures can show the parent of a compound that is named as a salt.

One data set has as its target T1, G9a (Homo sapiens, UniProt Q96KQ7).
T1 sequence (Q96KQ7 1-1210): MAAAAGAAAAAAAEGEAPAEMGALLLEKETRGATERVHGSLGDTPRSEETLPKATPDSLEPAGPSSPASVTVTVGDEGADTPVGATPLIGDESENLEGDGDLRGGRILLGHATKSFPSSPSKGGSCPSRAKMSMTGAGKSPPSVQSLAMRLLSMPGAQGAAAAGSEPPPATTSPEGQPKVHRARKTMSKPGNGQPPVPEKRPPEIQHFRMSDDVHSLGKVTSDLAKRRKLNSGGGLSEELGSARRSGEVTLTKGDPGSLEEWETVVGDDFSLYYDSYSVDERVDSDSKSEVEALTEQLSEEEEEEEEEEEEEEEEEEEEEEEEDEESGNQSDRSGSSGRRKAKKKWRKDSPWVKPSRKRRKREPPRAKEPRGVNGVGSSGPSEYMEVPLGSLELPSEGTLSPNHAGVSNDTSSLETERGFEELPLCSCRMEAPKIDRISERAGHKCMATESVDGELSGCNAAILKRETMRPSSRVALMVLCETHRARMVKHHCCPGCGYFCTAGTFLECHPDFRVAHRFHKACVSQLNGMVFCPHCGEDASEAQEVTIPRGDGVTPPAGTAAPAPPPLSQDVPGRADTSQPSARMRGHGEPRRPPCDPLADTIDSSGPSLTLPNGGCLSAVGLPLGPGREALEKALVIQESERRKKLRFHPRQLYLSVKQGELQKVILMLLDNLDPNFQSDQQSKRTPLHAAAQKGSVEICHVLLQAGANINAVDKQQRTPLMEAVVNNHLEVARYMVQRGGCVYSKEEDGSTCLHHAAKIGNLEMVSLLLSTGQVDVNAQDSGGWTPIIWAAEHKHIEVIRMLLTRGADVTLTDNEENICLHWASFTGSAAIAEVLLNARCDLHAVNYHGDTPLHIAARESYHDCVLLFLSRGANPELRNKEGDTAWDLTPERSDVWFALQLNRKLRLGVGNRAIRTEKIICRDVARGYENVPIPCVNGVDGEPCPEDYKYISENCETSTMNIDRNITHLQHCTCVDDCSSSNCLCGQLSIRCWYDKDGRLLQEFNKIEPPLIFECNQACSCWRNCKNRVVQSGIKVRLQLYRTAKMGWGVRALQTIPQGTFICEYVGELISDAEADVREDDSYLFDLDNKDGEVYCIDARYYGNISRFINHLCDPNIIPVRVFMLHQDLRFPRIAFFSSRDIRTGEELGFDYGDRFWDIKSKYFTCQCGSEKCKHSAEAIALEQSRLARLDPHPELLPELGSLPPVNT
Nature of the data set: G9a AlphaLISA enzymatic activity assay. To be noted: 0.15 nM G9a, 10 uM S-adenosyl-methionine, 100 nM biotinylated histone 3 peptide (1-21), 1 h room temperature. It counts as biochemical. In short, it runs like this:
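Reaction of 0.15 nM G9a with 10 uM SAM and 100 nM biotinylated histone H3 (1-21) peptide in 50 mM Tris-HCl pH9, 50 mM NaCl, 0.01% Tween-20, 1 mM DTT, 1 h at room temperature. H3K9me2 detected by AlphaLISA (anti-H3K9me2 acceptor, streptavidin donor beads, 615 nm); IC50 from percent inhibition across dilutions.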
On the technique in general: Bead proximity is the source of the signal in Alpha formats.
With `COc1cc2c(cc1OCCCN1CCCC1)[nH]c1ccnc(C3=CCNCC3)c12` [Compound 66, 4-{8-methoxy-7-[3-(pyrrolidin-1-yl)propoxy]-5H-pyrido[4,3-b]indol-1-yl}-1,2,3,6-tetrahydropyridine bishydrochloride], half-maximal inhibition (IC50) required 5.6 nM.

The compound `COc1cc2c(cc1OCCCN(C(C)C)C(C)C)[nH]c1ccnc(C3CC3)c12` [Compound 61, [3-({1-cyclopropyl-8-methoxy-5H-pyrido[4,3-b]indol-7-yl}oxy)propyl]bis(propan-2-yl)amine hydrochloride] came in with an IC50 of 480 nM.

Turning to `COc1cc2c(cc1OCCCN1CCCC1)[nH]c1nc(N)ccc12` [Compound 33, 6-methoxy-7-[3-(pyrrolidin-1-yl)propoxy]-9H-pyrido[2,3-b]indol-2-amine hydrochloride], the IC50 was 320 nM.

The compound `COc1cc2c(cc1OCCCN1CCCC1)[nH]c1cc(N)nc(C)c12` [Compound 10, 8-methoxy-1-methyl-7-[3-(pyrrolidin-1-yl)propoxy]-5H-pyrido[4,3-b]indol-3-amine] registered an IC50 of 4.5 nM.

`COc1cc2c(cc1OCCCN1CCCC1)[nH]c1ccnc(N3CC[C@@H](O)C3)c12` [Compound 13, (3R)-1-{8-methoxy-7-[3-(pyrrolidin-1-yl)propoxy]-5H-pyrido[4,3-b]indol-1-yl}pyrrolidin-3-ol]: the IC50 is 34 nM.

Consider `COCCCc1nccc2[nH]c3cc(OCCCN(C)C)c(OC)cc3c12` [Compound 58, (3-{[8-methoxy-1-(3-methoxypropyl)-5H-pyrido[4,3-b]indol-7-yl]oxy}propyl)dimethylamine hydrochloride], for which half-maximal inhibition (IC50) required 86 nM.

Compound `COc1cc2c(cc1OCCCN1CCCC1)[nH]c1c(Cl)cnc(N3CCCC3)c12` [Compound 86, 1-{4-chloro-8-methoxy-7-[3-(pyrrolidin-1-yl)propoxy]-5H-pyrido[4,3-b]indol-1-yl}pyrrolidine hydrochloride] yielded a 50% inhibitory concentration (IC50) of 180 nM.

Another data set deals with bone marrow CD34+ hematopoietic cells.
Experiment: not given
Conditions: human.
In the case of `COc1cc2c(cc1OCCCN1CCCC1)[nH]c1ccnc(C3=CCNCC3)c12` [Compound 66, 4-{8-methoxy-7-[3-(pyrrolidin-1-yl)propoxy]-5H-pyrido[4,3-b]indol-1-yl}-1,2,3,6-tetrahydropyridine bishydrochloride], the “Fold Induction” value worked out at 1.3 fold.

These data come from patent publication US11111243B2, “Azaindole compounds as histone methyltransferase inhibitors” (GLOBAL BLOOD THERAPEUTICS, INC., priority 2017, dated 2021).
